Results from patent US20140194528A1, “USAGE OF SODIUM HOUTTUYFONATE ON INHIBITING IDIOPATHIC PULMONARY FIBROSIS AND BLEOMYCIN INDUCED PULMONARY FIBROSIS” (Hong Kong Baptist University, priority 2013, published 2014).

Key:
[1] = test system: BLM induced pulmonary fibrosis mice model; test: Bleomycin (BLM) induced pulmonary fibrosis mice model, treatment with SH or PA; type: in vivo, Kunming mice; conditions: for lung inflammatory cell infiltration and collagen deposition (H&E staining): 7th, SH both high (90 mg/kg) and low (45 mg/kg) concentrations (FIG. 2); for lung inflammatory cell infiltration and collagen deposition (H&E staining) / lung/body weight ratio: 14th and 28th day; for lung/body weight ratio: SH oral once a day, p<0.05 / p<0.01 vs BLM group (FIG. 1); for hydroxyproline production in lung tissue: 28th day samples, p<0.05 / p<0.01 vs BLM group (FIG. 3C); for deposition of collagens (Sirius Red staining, polarized light): all sample collection time points (7th, 14th, 28th day), SH 90 and 45 mg/kg (FIG. 3A); for collagen I/III ratio: all time points (FIG. 3B)
Method: Kunming mice were obtained from Shanghai Experimental Animal Center, Chinese Academy of Sciences. The animals were housed in stainless steel metabolite cages and observed under a 12 hours light-12 hours dark cycle in a well-ventilated room at 23° C±2° C. They were fed with standard pellet food and tap water ad libitum. The study was approved by the Animal Care and Use Committee of Shanghai University of Traditional Chinese Medicine, and was performed in accordance with the National Institute of Health guidelines for the care and handling of animals.
One hundred and twenty mice (male, 8 weeks old, 18-22 g) were randomly divided into the following 5 groups: sham control operation group (Control); BLM treatment group (BLM); prednisone acetate treatment group (BLM+PA); high concentration SH treatment group (BLM+SH High); and low concentration SH treatment group (BLM+SH Low). In the control group, mice received 1 ml/kg 0.9% sterile saline intratracheally under pentobarbital sodium anesthesia. In the BLM group, mice received a single dose of BLM intratracheally (5 mg in 1 ml sterile saline/body weight (kg)). The control and BLM groups received saline (oral, 5 ml/body weight (kg)) once a day for 4 weeks after BLM injection. We selected the doses of SH based on our previous report and small-scale preliminary experiments. We employed two different administration concentrations. SH was administered orally once a day to both the high (90 mg/kg) and low (45 mg/kg) concentration SH groups. On the 7th, 14th or 28th day, the mice were anesthetized with pentobarbital sodium (50 mg/kg) intraperitoneally.
The lungs were immersed in buffered formalin (10%) for 48 h, then embedded in paraffin and sliced (5 μm) and stained with H&E, or Sirius red. Each sample slice was photographed (x200 magnification) under the microscope (Olympus BX51, 167 Japan). All photos were analyzed with the image-Pro Plus 6.3 analyzing software (Media Cybernetics, Bethesda, Md. USA) by computer. Type I and type III collagen accumulation in the interstitial space of the lung was assessed by polarized light microscopy. Type I or type III collagen volume fraction (CVF) was also determined with Image-Pro 6.3 analyzing software.
All values were expressed as mean±standard deviation (SD). Statistical analysis was performed by one-way analysis of variance for multiple comparisons, followed by Student-Newman-Keuls test to evaluate the difference between two groups. Values of p<0.05 were considered statistically significant for all analyses.

mice lung = test: Small-scale preliminary experiments with two dosages of BLM in mice; type: in vivo
Method: Two different dosages of BLM (2.5 mg/kg, 5mg/kg) were given to 10 mice (5 mice for each group) for small-scale preliminary experiments. On the 7th and 14th day, the mice were anesthetized with pentobarbital sodium (50 mg/kg) intraperitoneally. […]. […] Therefore, 5 mg of BLM in 2.5 ml sterile saline/body weight (kg) was used to generate BLM induced pulmonary fibrosis mice model. In the BLM group, mice received a single dose of BLM. After the instillation of saline or BLM, the lung/body weight ratio were obtained on the 7th, 14th, and 28th day. […] Both PA and SH reduced the lung/body weight ratio on the 14th and 28th day in BLM mice (*p<0.05, **p<0.01). Meanwhile, there was no significant difference in body weight among all groups.

Molecule | lung inflammatory cell infiltration and collagen deposition (H&E staining) ([1]; BLM mice) | lung/body weight ratio ([1]; BLM mice) | hydroxyproline production in lung tissue ([1]; BLM mice) | deposition of collagens (Sirius Red staining, polarized light) ([1]; BLM mice) | collagen I/III ratio ([1]; BLM+PH group) | cytokine (IL-1β, IL-6 and TNF-α) production in lung tissues ([1]; BLM mice) | body weight ([1]; BLM mice, higher dose of SH) | collagen I/III ratio ([1]; BLM+SH High (90 mg/kg)) | collagen I/III ratio ([1]; BLM+SH Low (45 mg/kg)) | pathological change of lung (mice lung; BLM 2.5 mg/kg, 7th and 14th day (data not shown)) | death (mice lung; BLM 5 mg/kg) | lung tissue histological examination (mice lung; BLM 5 mg/kg, 7th and 14th day)
CC(=O)OCC(=O)[C@@]1(O)CC[C@H]2[C@@H]3CCC4=CC(=O)C=C[C@]4(C)[C@H]3C(=O)C[C@@]21C [PA, prednisone acetate] | reduced | reduced | suppressed | reduced | low collagen I/III ratios | – | – | – | – | – | – | –
CCCCCCCCCC(=O)CC(O)S(=O)(=O)O (stereo not shown) [SH, Sodium Houttuyfonate] | reduced | reduced | suppressed | reduced | – | inhibit | without adversely affecting the body weight | low collagen I/III ratios | low collagen I/III ratios | – | – | –
Bleomycin [BLM] | – | – | – | – | – | – | – | – | – | not significant | no death | showed the fibrotic morphology
